US3947411A, “Novel 1-aryl-2-arylalkyl-3-or-4-[4'-(substituted-alkyl)piperazino-1']butanols- 2-or-butenes-1, and methods of manufacture thereof” (Warner-Lambert Company, priority 1972, dated 1976)
≈ marks a conversion by molar mass, not a printed value.

What was measured:
Candida albicans = assay: Agar well inhibition zone test against fungi, Candida albicans (Table II); settings: quantity per well giving inhibition zone (500, 50, 5 μg tested); Sabouraud agar, 28°, 48 hours
Escherichia coli = assay: Agar well inhibition zone test against bacteria, Escherichia coli (Table III); settings: quantity per well giving inhibition zone (500, 50, 5 μg tested); nutrient agar, 37°, 24 hours
Method: (§1) The efficacy of the compounds against bacteria was tested as follows:
(§2) The test organisms, in this case Staphylococcus aureus and Escherichia coli, were inoculated on nutrient agar as described in Example 12, wells were punched, and the solutions of the compounds were transferred to fill the wells. The quantity of compound in the wells amounted again to 500 μg, 50 μg and 5 μg.
(§3) After incubation a 37° for 24 hours the quantity of compound was determined at which an inhibition of the organism's growth, in the form of an inhibition zone around the corresponding well, occurred.

Staphylococcus aureus = assay: Agar well inhibition zone test against bacteria, Staphylococcus aureus (Table III); settings: quantity per well giving inhibition zone (500, 50, 5 μg tested); nutrient agar, 37°, 24 hours
Method: as §1, §2, §3

Aspergillus niger = assay: Agar well inhibition zone test against fungi, Aspergillus niger (Table II); settings: quantity per well giving inhibition zone (500, 50, 5 μg tested); Sabouraud agar, 28°, 48 hours
Method: The efficacy of the compounds against fungi was tested as follows:
The test organisms, in this case the blastomycete Candida albicans and the mold Aspergillus niger, were inoculated onto Sabouraud agar plates by pouring a photometrically adjusted standard suspension of organisms on the plate. After inoculation, wells with a diameter of 5.0 mm were punched in the agar, and filled with 50 ul of the compound solution mentioned before. The quantity of compound applied thus amounted to 500 μg, 50 μg and 5 μg. After incubation at 28° for 48 hours, the quantity of compound was determined at which an inhibition of the organism's growth, in form of an inhibition zone around the corresponding well, was present.

[1] = system: Mycobacterium tuberculosis II 37 RV (typus humanus); assay: Efficacy against Mycobacteria, Tb-broth dilution series (Table I); assay type: cell-based; settings: 504 h, Dubos Tb-broth + 10% bovine serum, 21 days, read-out: Minimum Inhibitory Concentration
Solubility in water = assay type: physicochemical; settings: hydrochlorides or oxalates, read-out: solubilities (in water)
Method: The following list contains examples of those compounds which are made according to the methods disclosed. (The individual compounds are identified by elementary analyses and infrared spectra, by ultra-violet or nuclear resonance spectra, if necessary.) Individual melting points and solubilities (in water) are also given as is the method by which each compound is prepared.
The melting points and solubilities are given for the Hydrochlorides I - XVI; XVIII - XXVII; XXIX - XXXV; XXXVII - XLII; XLIV - LXII; LXIV - LXVII, and the Oxalates XVII; […]; XXXVI; LXIII.

Staph. aureus = assay: Minimum inhibitory concentration for bacteria, tube dilution, Staph. aureus (Table V); settings: Staphylococcus aureus, 48 h, read-out: Minimum Inhibitory Concentration, Staph. aureus
Method: A tube dilution series of the respective compound in nutrient broth whose individual tubes contained concentrations of 1024 μg, 512 μg, 256 μg, 128 μg, 64 μg, 32 μg, 1 μg, 8 μg, 4 μg, 2 μg, 1.1 μg and 0.5 μg/ml was prepared and inoculated with a photometrically standardized suspension of the test organisms.

C. albicans [2] = assay: Minimum inhibitory concentration for fungi in presence of serum, C. albicans (Table VI); assay type: cell-based; settings: Candida albicans; Sabouraud nutrient broth + 10% bovine serum, 28°C, 48 hours
C. albicans [3] = assay: Minimum inhibitory concentration for fungi, tube dilution, C. albicans (Table IV); settings: Candida albicans, 48 h, read-out: Minimum Inhibitory Concentration, C. albicans
Method: (§4) A tube dilution series of the respective compound in Sabouraud nutrient broth, whose individual tubes contained concentrations of 1024 μg, 512 μg, 256 μg, 128 μg, 64 μg, 32 μg, 16 μg, 8 μg, 4 μg, 2 μg, 1.1 μg and 0.5 μg/ml, was prepared and inoculated with a photometrically standardized suspension of the test organisms or the spores thereof.

A. niger [4] = assay: Minimum inhibitory concentration for fungi, tube dilution, A. niger (Table IV); settings: Aspergillus niger, 48 h, read-out: Minimum Inhibitory Concentration, A. niger
Method: as §4

A. niger [5] = assay: Minimum inhibitory concentration for fungi in presence of serum, A. niger (Table VI); assay type: cell-based; settings: Aspergillus niger; Sabouraud nutrient broth + 10% bovine serum, 28°C, 48 hours

Compound | Inhibition Area at μg, Cand. albicans (Candida albicans) | Inhibition Area at μg, E. coli (Escherichia coli) | Inhibition Area at μg, Staph. aureus (Staphylococcus aureus) | Inhibition Area at μg, Asp. niger (Aspergillus niger) | MIC [1] | solubility (Solubility in water) | MIC (Staph. aureus) | MIC (C. albicans [2]) | MIC (C. albicans [3]) | MIC (A. niger [4]) | MIC (A. niger [5])
CC1CN(CCN2CCN(C(C)C(O)(Cc3ccccc3)Cc3ccccc3)CC2)CCO1 (stereo not drawn) [VI, 1-phenyl-2-benzyl-3-{4'-[β-(2"-methyl-morpholino)-ethyl]-piperazino-1'}-butanol-2] | 500 µg | > 500 µg | > 500 µg | 500 µg | 100 µg/mL | 100 mg/mL (≈ 221000 µM) |  |  |  |  | 
Cc1cccc(CC(O)(Cc2cccc(C)c2)C(C)N2CCN(CCN3CCCCC3)CC2)c1 (stereo not drawn) [XXI, 1-m-tolyl-2-m-methylbenzyl-3-[4'-(β-piperidino-ethyl)-piperazino-1']-butanol-2] | 50 µg | > 500 µg | 5 µg | 5 µg |  | 100 mg/mL (≈ 216000 µM) | 64 µg/mL (≈ 138 µM) | 256 µg/mL | 8 µg/mL (≈ 17.3 µM) | 4 µg/mL (≈ 8.63 µM) | 128 µg/mL
CC(N1CCN(CCN2CCN(CCc3ccccc3)CC2)CC1)C(O)(Cc1ccccc1)Cc1ccccc1 (stereo not drawn) [XIV, 1-phenyl-2-benzyl-3-{4'-[β-(4"-β-phenethyl-piperazino-1")-ethyl]-piperazino-1'}-butanol-2] | 50 µg | 500 µg | 50 µg | 50 µg |  | 100 mg/mL (≈ 185000 µM) | 32 µg/mL (≈ 59.2 µM) | 128 µg/mL | 32 µg/mL (≈ 59.2 µM) | 16 µg/mL (≈ 29.6 µM) | 64 µg/mL
CC(N1CCN(CCN2CCN(C)CC2)CC1)C(O)(Cc1ccccc1)Cc1ccccc1 (stereo not drawn) [X, 1-phenyl-2-benzyl-3-{4'-[β-(4"-methyl-piperazino-1")-ehtyl]-piperazino-1'}-butanol-2] | 50 µg | 500 µg | 500 µg | 50 µg |  | 100 mg/mL (≈ 222000 µM) |  | 16 µg/mL | 16 µg/mL (≈ 35.5 µM) | 16 µg/mL (≈ 35.5 µM) | 16 µg/mL
CC1CCN(CCN2CCN(C(C)C(=Cc3ccccc3)Cc3ccccc3)CC2)CC1 (stereo not drawn) [XXXV, 1-phenyl-2-benzyl-3-{4'-[β-(4"-methylpiperidino)-ethyl]-piperazino-1'}-butene-1] | 50 µg | 500 µg | 50 µg | 50 µg |  | 10 mg/mL (≈ 23200 µM) | 256 µg/mL (≈ 593 µM) | 32 µg/mL | 8 µg/mL (≈ 18.5 µM) | 8 µg/mL (≈ 18.5 µM) | 128 µg/mL
CC(N1CCN(Cc2ccncc2)CC1)C(O)(Cc1ccccc1)Cc1ccccc1 (stereo not drawn) [XXIV, 1-phenyl-2-benzyl-3-[4'-(4"-pyridylmethyl)-piperazino-1']-butanol-2] | > 500 µg | > 500 µg | > 500 µg | > 500 µg |  | 100 mg/mL (≈ 241000 µM) |  | 128 µg/mL |  |  | 128 µg/mL
CN1CCN(CCCCCCN2CCN(CCC(=Cc3ccccc3)Cc3ccccc3)CC2)CC1 [LXV, 1-phenyl-2-benzyl-4-[4'-w-(4"-methyl-piperazino-1")-n-hexyl-piperazino-1']-butene-1] | 5 µg | 500 µg | 500 µg | 5 µg |  | 100 mg/mL (≈ 205000 µM) |  | 32 µg/mL | 32 µg/mL (≈ 65.5 µM) | 8 µg/mL (≈ 16.4 µM) | 8 µg/mL
CC(C(=Cc1ccccc1)Cc1ccccc1)N1CCN(CCN2CCN(C)CC2)CC1 (stereo not drawn) [XXXVI, 1-phenyl-2-benzyl-3-{4'-[β-(4"-methylpiperazino-1")-ethyl]-piperazino-1'}-butene-1] | 50 µg | > 500 µg | 500 µg | 50 µg |  | < 10 mg/mL |  | 32 µg/mL | 4 µg/mL (≈ 9.25 µM) | 2 µg/mL (≈ 4.62 µM) | 8 µg/mL
CC1CCCCN1CCN1CCN(C(C)C(=Cc2ccccc2)Cc2ccccc2)CC1 (stereo not drawn) [XXXIII, 1-phenyl-2-benzyl-3-[4'-(β-2"-methyl-piperidinoethyl)-piperazino-1']-butene-1] | 5 µg | 500 µg | 50 µg | 50 µg | 20 µg/mL | 100 mg/mL (≈ 232000 µM) | 128 µg/mL (≈ 297 µM) |  | 256 µg/mL (≈ 593 µM) | 256 µg/mL (≈ 593 µM) | 
CC(C(=Cc1ccccc1)Cc1ccccc1)N1CC[N+]2(CCCCCC2)CC1 (stereo not drawn) [LXVII, hexahydro-azepinium-1-spiro-1'-piperazinium-4'-(3-benzyl-4-phenyl-but-3-en-2-yl)-chloride] | 50 µg | 500 µg | 50 µg | 50 µg |  | 10 mg/mL | 8 µg/mL | 64 µg/mL | 128 µg/mL | 128 µg/mL | 128 µg/mL
CC1CN(CCN2CCN(C(C)C(=Cc3ccccc3)Cc3ccccc3)CC2)CCO1 (stereo not drawn) [XXXII, 1-phenyl-2-benzyl-3-{4'-[β-(2-methylmorpholino)-ethyl]-piperazino-1'}-butene-1] | 500 µg | > 500 µg | 50 µg | 50 µg | 50 µg/mL | 100 mg/mL (≈ 231000 µM) | 128 µg/mL (≈ 295 µM) |  |  | 128 µg/mL (≈ 295 µM) | 
CC(C(=Cc1ccccc1)Cc1ccccc1)N1CCN(CCN2CCN(C(C)c3ccccc3)CC2)CC1 (stereo not drawn) [XXXVIII, 1-phenyl-2-benzyl-3-{4'-[β-(4"-α-phenethyl-piperazino-1")-ethyl]-piperazino-1'}-butene-1] | 500 µg | 500 µg | 5 µg | 500 µg |  | 100 mg/mL (≈ 191000 µM) | 128 µg/mL (≈ 245 µM) | > 1020 µg/mL |  |  | > 1020 µg/mL
CC(N1CCN(CCCl)CC1)C(O)(Cc1ccccc1)Cc1ccccc1 (stereo not drawn) [XLV, 1-phenyl-2-benzyl-3-[4'-(β-chloro-ethyl)-piperazino-1']-butanol-2] | 50 µg | 500 µg | 50 µg | 500 µg | 100 µg/mL | 25 mg/mL (≈ 64600 µM) | > 1020 µg/mL |  | > 1020 µg/mL |  | 
CC(N1CCN(Cc2cccnc2)CC1)C(O)(Cc1ccccc1)Cc1ccccc1 (stereo not drawn) [XXIII, 1-phenyl-2-benzyl-3-[4'-(3"-pyridylmethyl)-piperazino-1']-butanol-2] | 500 µg | > 500 µg | 500 µg | > 500 µg | 1000 µg/mL | 50 mg/mL (≈ 120000 µM) |  |  |  |  | 
CC(C(=Cc1ccccc1)Cc1ccccc1)N1CCN(CCN(C(C)C)C(C)C)CC1 (stereo not drawn) [XXVIII, 1-phenyl-2-benzyl-3-[4'-(β-diisopropylamino-ethyl)-piperazino-1']-butene-1] | 50 µg | 500 µg | 50 µg | 50 µg |  | 10 mg/mL (≈ 23100 µM) | 64 µg/mL (≈ 148 µM) | 256 µg/mL | 64 µg/mL (≈ 148 µM) | 32 µg/mL (≈ 73.8 µM) | > 1020 µg/mL
CC(c1ccccc1)N1CCN(CCN2CCN(C(C)C(O)(Cc3ccccc3)Cc3ccccc3)CC2)CC1 (stereo not drawn) [XIII, 1-phenyl-2-benzyl-3-{4'-[β-(4"-α-phenethyl-piperazino-1")-ethyl]-piperazino-1'}-butanol-2] | 500 µg | 500 µg | 5 µg | 500 µg |  | 100 mg/mL (≈ 185000 µM) | 32 µg/mL (≈ 59.2 µM) | 513 µg/mL |  |  | 256 µg/mL
CC(N1CCN(CCCCCCN2CCCCC2)CC1)C(O)(Cc1ccccc1)Cc1ccccc1 (stereo not drawn) [XX, 1-phenyl-2-benzyl-3-[4'-(w-piperidino-n-hexyl)-piperazino-1']-butanol-2] | 50 µg | 500 µg | 50 µg | 5 µg |  | 100 mg/mL (≈ 203000 µM) | 128 µg/mL (≈ 260 µM) | 128 µg/mL | 64 µg/mL (≈ 130 µM) | 4 µg/mL (≈ 8.13 µM) | 8 µg/mL
